Structure (SMILES) | melting point
CC(=O)Nc1nc(-c2cc(C)cc(C)c2)c(-c2ccnc(C)c2)s1 [H 40-1, N-[4 (3,5 dimethylphenyl)-5 (2 methyl-4 pyridyl)-1,3 thiazol-2 yl]acetamide] | 236 to 237 °C
CC(=O)Nc1nc(-c2cc(C)cc(C)c2)c(-c2cc(C)nc(C)c2)s1 [H 40-3, N-[4 (3,5 dimethylphenyl)-5 (2,6 dimethyl-4 pyridyl)-1,3 thiazol-2 yl]acetamide] | 266 to 267 °C
Cc1cc(C)cc(-c2nc(NC(=O)Nc3ccccc3)sc2-c2cc(C)nc(C)c2)c1 [H 53-1, N-[4 (3,5 dimethylphenyl)-5 (2,6 dimethyl-4 pyridyl)-1,3 thiazol-2 yl]-N′-phenylurea] | 219 to 222 °C
CCCc1cccc(-c2nc(CC)sc2-c2ccnc(NC(=O)CC)c2)c1 [H 84-8, N-[4 [2 ethyl-4 (3-propylphenyl)-1,3 thiazol-5 yl]-2 pyridyl]propionamide] | 124 to 125 °C
Cc1cc(C)cc(-c2nc(NC(=O)c3cnccn3)sc2-c2ccncc2)c1 [23-246, N-[4 (3,5 dimethylphenyl)-5 (4 pyridyl)-1,3 thiazol-2-yl]pyrazinecarboxamide] | 269 to 270 °C
CCNC(=O)Nc1nc(-c2cc(C)cc(C)c2)c(-c2ccncc2)s1 [23-201, N-[4 (3,5 dimethylphenyl)-5 (4 pyridyl)-1,3 thiazol-2 yl]-N′-ethylurea] | 202 to 203 °C
CCc1nc(-c2cccc(C(=O)O)c2)c(-c2ccnc(N)c2)s1 [H 77, 3 [5 (2 amino-4 pyridyl)-2 ethyl-1,3 thiazol-4 yl]benzoic acid] | 273 to 274 °C
CCC(=O)Nc1cc(-c2sc(CC)nc2-c2cccs2)ccn1 [H 30-10, N-[4 [2 ethyl-4 (2-thienyl)-1,3 thiazol-5 yl]-2 pyridyl]propionamide] | 187 to 188 °C
CCc1nc(-c2ccc(F)cc2)c(-c2ccnc(N)c2)s1 [H 20-3, 4 [2 ethyl-4 (4-fluorophenyl)-1,3 thiazol-5 yl]-2 pyridylamine] | 140 to 141 °C
Cc1cccc(-c2nc(N)sc2-c2ccnc(N3CCOCC3)c2)c1 [H 34-1, [4 (3 methylphenyl)-5 (2-morpholino-4 pyridyl)-1,3 thiazol-2 yl]amine] | 188 to 189 °C
Nc1nc(-c2ccc(F)cc2)c(-c2ccnc(F)c2)s1 [H 7-3, [4 (4 fluorophenyl)-5 (2-fluoro-4 pyridyl)-1,3 thiazol-2 yl]amine] | 243 to 245 °C
CCc1nc(-c2ccccc2)c(-c2ccnc(NC(=O)OC(C)(C)C)c2)s1 [H 79-1, 5 [2 (tert-butoxycarbonylamino)-4 pyridyl]-2 ethyl-4 phenyl-1,3 thiazole] | 154 to 155 °C
Cc1cc(-c2sc(N)nc2-c2ccc(F)cc2)ccn1 [H 7-8, [4 (4 fluorophenyl)-5 (2-methyl-4 pyridyl)-1,3 thiazol-2 yl]amine] | 233 to 234 °C
Cc1cccc(-c2nc(C(C)(F)F)sc2-c2ccnc(N)c2)c1 [H 113-2, 4 [2 (1,1 difluoroethyl)-4 (3 methylphenyl)-1,3 thiazol-5 yl]-2 pyridylamine] | 140 to 141 °C
CC(=O)Nc1nc(-c2cc(C)cc(C)c2)c(-c2ccncc2)s1 [Reference Example A 23-128, N-[4-(3,5-dimethylphenyl)-5-(4-pyridyl)-1,3-thiazol-2-yl]acetamide] | 284 to 286 °C
COc1ccc(C(=O)Nc2nc(-c3cc(C)cc(C)c3)c(-c3ccnc(C)c3)s2)cn1 [H 48-3, N-[4-(3,5-dimethylphenyl)-5-(2-methyl-4-pyridyl)-1,3-thiazol-2-yl]-6-methoxynicotinamide] | 242 to 244 °C
CC(=O)Nc1nc(-c2ccc(C(C)(C)C)cc2)c(-c2ccncc2)s1 [23-137, N-[4 [4 (1,1 dimethylethyl)phenyl]-5 (4 pyridyl)-1,3 thiazol-2 yl]acetamide] | 280 to 281 °C
CCc1nc(-c2cccc(Br)c2)c(-c2ccnc(NC(=O)OC(C)(C)C)c2)s1 [H 75-1, 4 (3 bromophenyl)-5 [2-(tert-butoxycarbonylamino)-4 pyridyl]-2 ethyl-1,3 thiazole] | 172 to 174 °C
CCc1nc(-c2ccc(F)c(C)c2)c(-c2ccnc(N)c2)s1 [H 20-9, 4 [2 ethyl-4 (4 fluoro-3-methylphenyl)-1,3 thiazol-5 yl]-2 pyridylamine] | 134 to 135 °C

Other lines, results leading:

melting point | Structure (SMILES)
196 to 197 °C | Cc1cc(C)cc(-c2nc(-c3ccc(S(C)(=O)=O)cc3)sc2-c2ccnc(C)c2)c1 [H 58-1, 4 (3,5 dimethylphenyl)-5-(2 methyl-4 pyridyl)-2 (4 methylsulfonylphenyl)-1,3 thiazole]
132 to 133 °C | CCC(=O)Nc1cc(-c2sc(CC)nc2-c2cccc(Cl)c2)ccn1 [H 30-8, N-[4-[4-(3-chlorophenyl)-2-ethyl-1,3-thiazol-5-yl]-2-pyridyl]propionamide]
180 to 182 °C | CSc1ccc(-c2nc(-c3cccc(C)c3)c(-c3ccnc(NC(=O)c4ccccc4)c3)s2)cc1 [D 16-15, N-[4-[4-(3-methylphenyl)-2-(4-methylthiophenyl)-1,3-thiazol-5-yl]-2-pyridyl]benzamide]
261 to 262 °C | Cc1cc(-c2sc(NC(=O)c3cccnc3)nc2-c2ccc(F)cc2)ccn1 [H 42-7, N-[4 (4 fluorophenyl)-5-(2 methyl-4 pyridyl)-1,3 thiazol-2 yl]nicotinamide]
198 to 199 °C | Cc1cccc(-c2nc(NC(=O)Nc3ccccc3)sc2-c2ccnc(NC3CCCCC3)c2)c1 [H 53-2, N-[5 (2 cyclohexylamino-4-pyridyl)-4 (3 methylphenyl)-1,3 thiazol-2 yl]-N′-phenylurea]
182 to 185 °C | Cc1cccc(-c2nc(-c3ccc(S(C)(=O)=O)cc3)sc2-c2ccnc(SCc3ccccc3)c2)c1 [D 27, 5 (2 benzylthio-4 pyridyl)-4 (3-methylphenyl)-2 (4 methylsulfonylphenyl)-1,3 thiazole]
99 to 101 °C | Cc1nc(-c2cccc(Cl)c2)c(-c2ccnc(NC(=O)Cc3ccccc3)c2)s1 [L 68-3, N-[4 [4 (3 chlorophenyl)-2-methyl-1,3 thiazol-5 yl]-2 pyridyl]phenylacetamide]
98 to 99 °C | CSCCc1nc(-c2cccc(C)c2)c(-c2ccnc(N)c2)s1 [H 99-1, 4 [4 (3 methylphenyl)-2 [2-(methylthio)ethyl]-1,3 thiazol-5 yl]-2 pyridylamine]
118 to 120 °C | COc1ccc(-c2nc(C)sc2-c2ccnc(NC(=O)Cc3ccccc3)c2)cc1 [D 15-1, N-[4 [4 (4 methoxyphenyl)-2 methyl-1,3 thiazol-5 yl]-2 pyridyl]phenylacetamide]
180 to 183 °C | CC(=O)Nc1cc(-c2sc(C(C)=O)nc2-c2cccc(Cl)c2)ccn1 [H 112, N-[4 [2 acetyl-4 (3-chlorophenyl)-1,3 thiazol-5 yl]-2 pyridyl]acetamide]
112 to 115 °C | CC(=O)Nc1cc(-c2sc(C)nc2-c2cccc(Cl)c2)ccn1 [H 30-1, N-[4-[4-(3-chlorophenyl)-2-methyl-1,3-thiazol-5-yl]-2-pyridyl]acetamide]
151 to 152 °C | Cc1cccc(-c2nc(C3CCN(C)CC3)sc2-c2ccnc(NC(=O)c3ccccc3)c2)c1 [L 44, N-[4 [4 (3 methylphenyl)-2 (1 methylpiperidin-4 yl)-1,3-thiazol-5 yl]-2 pyridyl]benzamide]
141 to 142 °C | CCc1nc(-c2cccc(F)c2)c(-c2ccnc(NC(C)=O)c2)s1 [H 82-5, N-[4 [2 ethyl-4 (3-fluorophenyl)-1,3 thiazol-5 yl]-2 pyridyl]acetamide]
105 to 107 °C | CCC(=O)Nc1cc(-c2sc(CC)nc2-c2ccc(F)c(C)c2)ccn1 [H 84-4, N-[4 [2 ethyl-4 (4 fluoro-3 methylphenyl)-1,3 thiazol-5 yl]-2 pyridyl]propionamide]
238 to 239 °C | CCC(=O)Nc1cc(-c2sc(-c3ccc(S(C)(=O)=O)cc3)nc2-c2cccc(C)c2)ccn1 [H 98-2, N-[4 [4 (3 methylphenyl)-2-(4 methylsulfonylphenyl)-1,3 thiazol-5 yl]-2 pyridyl]propionamide]
224 to 226 °C | COc1ccc(C(=O)Nc2nc(-c3cccc(C)c3)c(-c3ccnc(C)c3)s2)cn1 [H 47, 6 methoxy-N-[4 (3-methylphenyl)-5 (2 methyl-4 pyridyl)-1,3 thiazol-2-yl]nicotinamide]
215 to 216 °C | Cc1cccc(-c2nc(NC(=O)c3cccnc3)sc2-c2ccnc(NC3CCCC3)c2)c1 [H 42-4, N-[5 (2 cyclopentylamino-4 pyridyl)-4 (3 methylphenyl)-1,3 thiazol-2 yl]nicotinamide]
101 to 102 °C | CCc1nc(-c2cccc(C)c2)c(-c2ccnc(NC(=O)c3cccc(F)c3)c2)s1 [L 39-4, N-[4 [2 ethyl-4 (3-methylphenyl)-1,3 thiazol-5 yl]-2 pyridyl]-3 fluorobenzamide]
199 to 201 °C | Cc1cccc(-c2nc(-c3ccc(S(C)(=O)=O)cc3)sc2-c2ccnc(N3CCCC3)c2)c1 [H 37-4, 4 (3 methylphenyl)-2 (4-methylsulfonylphenyl)-5 [2 (1 pyrrolidinyl)-4 pyridyl]-1,3-thiazole]
169 to 170 °C | COc1ncccc1C(=O)Nc1nc(-c2cccc(C)c2)c(-c2ccnc(C)c2)s1 [H 49, 2 methoxy-N-[4 (3-methylphenyl)-5 (2 methyl-4 pyridyl)-1,3 thiazol-2-yl]nicotinamide]
83 to 84 °C | Cc1cccc(-c2nc(-c3ccccc3Cl)sc2-c2ccnc(C)c2)c1 [H 14-1, 2 (2 chlorophenyl)-4 (3-methylphenyl)-5 (2 methyl-4 pyridyl)-1,3 thiazole]
103 to 104 °C | CCCc1nc(-c2cccc(C)c2)c(-c2ccnc(NC(=O)CCc3ccccc3)c2)s1 [D 16-8, N-[4-[4-(3-methylphenyl)-2-propyl-1,3-thiazol-5-yl]-2-pyridyl]-3-phenylpropionamide]
128 to 130 °C | Cc1cccc(-c2nc(-c3ccc([S+](C)[O-])cc3)sc2-c2ccnc(C)c2)c1 (stereo not drawn) [H 54, 4-(3-methylphenyl)-5-(2-methyl-4-pyridyl)-2-(4-methylsulfinylphenyl)-1,3-thiazole]

— US20050080113A1, “Medicinal compositions” (priority 2001, published 2005)
